Measurements reported in patent publication US6410578B1, “Benzazole compounds and their use” (Novartis Animal Health US, Inc., priority 1998, dated 2002).

Experiments:
[1] = tested on: Boophilus microplus Biarra (larvae); assay: Arena test for vermin-repellent substances, Example A; settings: in vitro arena test, ca. 60 to 100 larvae per well; for duration of repellent/deterrent action compared with DEET: DEET as standard; for repellent/deterrent action: evaluation of video images
Method: (§1) This method is carried out in titre plates having 6 wells with a cross-section of 5 cm each, using a computer-supported video system. Each well of the titre plate is lined with a circular filter paper or another suitable carrier material. The substance of formula I to be tested is dissolved in methanol, acetonitrile or another suitable solvent, with ultrasound treatment and heating being employed for poorly-soluble substances. In an amount of 1 to 100 mg/cm^2, the dissolved test substance is placed in the centre of the filter paper on a quadrant or circular area of ca. 2.4 cm^2 radius. 4 of the 6 wells are filled with different test substances or with the same test substance in different dilutions (e.g. 1, 3.2, 5, 10 and 20 mg/cm^2). The 5th well is treated with DEET (N,N-diethyl-m-toluamide) as standard substance. The 6th well is filled with the pure solvent and serves as a control. 60 to 100 larvae or 25 to 50 nymphs or 10 to 25 adults of the parasite to be tested, e.g. ticks, are added to each filter paper, and the system is covered with a pane of glass and positioned under a video camera.
(§2) At intervals of 5 seconds, the video camera takes individual pictures of all 6 wells. For a qualitative evaluation, these images are observed in a time-lapse as a continuous film, optically following the movements of the parasites on the filter paper and comparing them with the movements in the control well no. 6 or with the standard in the 5th well. A qualitative observation is thus made as to whether the test parasites move evenly over the whole surface of the filter paper and ignore the test substance, or whether and over what period they avoid the treated zone, and what influence the dilution of the test substance has on the behaviour of the test parasites. In this way, neutral and repellent substances are determined. At the same time, the duration of activity of the test substance is determined and compared with that of the standard. By plotting all the images for each individual well over one another, different areas of density are obtained. This represents the frequency at which the parasites visit certain places. This frequency is evaluated statistically and thus quantitatively by the Willcoxon method in a comparison with the control and with the standard.
In vitro Test; Test Animal: Boophilus microplus Biarra (Larvae)
The test is carried out as described above, with ca. 60 to 100 larvae being added per well.

[2] = tested on: Rhipicephalus sanguineus (nymphs); assay: Arena test for vermin-repellent substances, Example C; settings: in vitro arena test, ca. 40 to 50 nymphs; for duration of repellent/deterrent action compared with DEET: DEET as standard; for repellent/deterrent action: evaluation of video images
Method: as §1, §2
In vitro Test; Test Animal: Rhipicephalus sanguineus (Nymphs)
The test is carried out analogously to example B, with ca. 40 to 50 nymphs.

[3] = tested on: Amblyomma hebraeum or variegatum (nymphs); assay: Arena test for vermin-repellent substances, Example B; settings: in vitro arena test, ca. 25 nymphs per well; for duration of repellent/deterrent action compared with DEET: DEET as standard; for repellent/deterrent action: evaluation of video images
Method: as §1, §2
In vitro Test; Test Animal: Amblyomma hebraeum or variegatum (Nymphs)
The test is carried out as described above, with ca. 25 nymphs being added per well.

| SMILES | duration of repellent/deterrent action compared with DEET [1] | repellent/deterrent action [1] | duration of repellent/deterrent action compared with DEET [2] | repellent/deterrent action [2] | duration of repellent/deterrent action compared with DEET [3] | repellent/deterrent action [3] |
| --- | --- | --- | --- | --- | --- | --- |
| COc1cc2nc(C)sc2cc1OC [5,6-dimethoxy-2-methylbenzothiazole] | lasts considerably longer than that of DEET | almost complete repellent/deterrent action | lasts considerably longer than that of DEET | almost complete repellent/deterrent action | lasts considerably longer than that of DEET | almost complete repellent/deterrent action |
| Cc1nc2cc(N)ccc2s1 [5-amino-2-methylbenzothiazole] | lasts considerably longer than that of DEET | almost complete repellent/deterrent action | lasts considerably longer than that of DEET | almost complete repellent/deterrent action | lasts considerably longer than that of DEET | almost complete repellent/deterrent action |
